Data as given in the supplement of paper PMC10307832.

Columns and labels:
Assay in all cases: relative viability (nuclei count vs DMSO), 5 days (fraction); higher = more cells survive
COR-L 105 = tested on: COR-L 105
In short: (§1)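 One day after seeding in 1536-well plates, lung cancer cell lines were dosed by pin tool. Dosing was either single-drug or a fixed anchor-drug dose plus five library-drug doses (not always all listed) in √10 steps. After 5 days, nuclei were stained in one fix-and-stain step and counted on 4× images, and relative viability is the nuclei count of treated wells over that of vehicle wells, given as the median of duplicate plates.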

SK-LU-1 = tested on: SK-LU-1
In short: as §1

SK-MES-1 = tested on: SK-MES-1
In short: as §1

NCI-H2347 = tested on: NCI-H2347
In short: as §1

LXF-289 = tested on: LXF-289
In short: as §1

NCI-H1395 = tested on: NCI-H1395
In short: as §1

NCI-H1755 = tested on: NCI-H1755
In short: as §1

NCI-H661 = tested on: NCI-H661
In short: as §1

EKVX = tested on: EKVX
In short: as §1

NCI-H1437 = tested on: NCI-H1437
In short: as §1

NCI-H1651 = tested on: NCI-H1651
In short: as §1

NCI-H2085 = tested on: NCI-H2085
In short: as §1

H3255 = tested on: H3255
In short: as §1

NCI-H1793 = tested on: NCI-H1793
In short: as §1

LC-2-ad = tested on: LC-2-ad
In short: as §1

LK-2 = tested on: LK-2
In short: as §1

CAL-12T = tested on: CAL-12T
In short: as §1

PC-3 [JPC-3] = tested on: PC-3 [JPC-3]
In short: as §1

NCI-H1944 = tested on: NCI-H1944
In short: as §1

NCI-H2087 = tested on: NCI-H2087
In short: as §1

EMC-BAC-2 = tested on: EMC-BAC-2
In short: as §1

NCI-H2228 = tested on: NCI-H2228
In short: as §1

NCI-H1915 = tested on: NCI-H1915
In short: as §1

With `O=c1[nH]c2ccccc2n1C1CCN(CCCC(c2ccc(F)cc2)c2ccc(F)cc2)CC1` [Pimozide] + CC(=O)Nc1cccc(-n2c(=O)n(C3CC3)c(=O)c3c(Nc4ccc(I)cc4F)n(C)c(=O)c(C)c32)c1 [Trametinib] (partner 0.02 µM) the relative viability (COR-L 105; first compound 0.08 µM) was 0.399, the relative viability (COR-L 105; first compound 0.253 µM) was 0.418 and the relative viability (COR-L 105; first compound 0.8 µM) was 0.425. It also gave a relative viability (COR-L 105; first compound 2.53 µM) of 0.437, a relative viability (COR-L 105; first compound 8 µM) of 0.779 and a relative viability (SK-LU-1; first compound 0.08 µM) of 0.463. The relative viability (SK-LU-1; first compound 0.253 µM) was 0.472, the relative viability (SK-LU-1; first compound 0.8 µM) was 0.455 and the relative viability (SK-LU-1; first compound 2.53 µM) was 0.404. For the same molecule, the relative viability (SK-LU-1; first compound 8 µM) was 0.352, the relative viability (SK-MES-1; first compound 0.08 µM) was 0.533 and the relative viability (SK-MES-1; first compound 0.253 µM) was 0.517. It also gave a relative viability (SK-MES-1; first compound 0.8 µM) of 0.508, a relative viability (SK-MES-1; first compound 2.53 µM) of 0.744 and a relative viability (SK-MES-1; first compound 8 µM) of 0.441. For the same molecule, the relative viability (NCI-H2347; first compound 0.08 µM) was 0.288, the relative viability (NCI-H2347; first compound 0.253 µM) was 0.307 and the relative viability (NCI-H2347; first compound 0.8 µM) was 0.287. The relative viability (NCI-H2347; first compound 2.53 µM) was 0.278, the relative viability (NCI-H2347; first compound 8 µM) was 0.285 and the relative viability (LXF-289; first compound 0.08 µM) was 0.623. For the same molecule, the relative viability (LXF-289; first compound 0.253 µM) was 0.67, the relative viability (LXF-289; first compound 0.8 µM) was 0.627 and the relative viability (LXF-289; first compound 2.53 µM) was 0.687. For the same molecule, the relative viability (LXF-289; first compound 8 µM) was 0.674, the relative viability (NCI-H1395; first compound 0.08 µM) was 0.929 and the relative viability (NCI-H1395; first compound 0.253 µM) was 0.924. It also gave a relative viability (NCI-H1395; first compound 0.8 µM) of 0.993, a relative viability (NCI-H1395; first compound 2.53 µM) of 1.09 and a relative viability (NCI-H1395; first compound 8 µM) of 0.916. For the same molecule, the relative viability (NCI-H1755; first compound 0.08 µM) was 0.748, the relative viability (NCI-H1755; first compound 0.253 µM) was 0.766 and the relative viability (NCI-H1755; first compound 0.8 µM) was 0.736. For the same molecule, the relative viability (NCI-H1755; first compound 2.53 µM) was 0.761, the relative viability (NCI-H1755; first compound 8 µM) was 0.712 and the relative viability (NCI-H661; first compound 0.08 µM) was 0.598. The relative viability (NCI-H661; first compound 0.253 µM) was 0.583, the relative viability (NCI-H661; first compound 0.8 µM) was 0.498 and the relative viability (NCI-H661; first compound 2.53 µM) was 0.492. It also gave a relative viability (NCI-H661; first compound 8 µM) of 0.409, a relative viability (EKVX; first compound 0.253 µM) of 0.294 and a relative viability (EKVX; first compound 0.8 µM) of 0.31. It also gave a relative viability (EKVX; first compound 2.53 µM) of 0.344, a relative viability (EKVX; first compound 8 µM) of 0.326 and a relative viability (NCI-H1437; first compound 0.08 µM) of 0.652. The relative viability (NCI-H1437; first compound 0.253 µM) was 0.495, the relative viability (NCI-H1437; first compound 0.8 µM) was 0.441 and the relative viability (NCI-H1437; first compound 2.53 µM) was 0.376. It also gave a relative viability (NCI-H1437; first compound 8 µM) of 0.412, a relative viability (NCI-H1651; first compound 0.08 µM) of 0.833 and a relative viability (NCI-H1651; first compound 0.253 µM) of 0.79. For the same molecule, the relative viability (NCI-H1651; first compound 0.8 µM) was 0.829, the relative viability (NCI-H1651; first compound 2.53 µM) was 0.82 and the relative viability (NCI-H1651; first compound 8 µM) was 0.853. It also gave a relative viability (NCI-H2085; first compound 0.08 µM) of 0.659, a relative viability (NCI-H2085; first compound 0.253 µM) of 0.625 and a relative viability (NCI-H2085; first compound 0.8 µM) of 0.583. It also gave a relative viability (NCI-H2085; first compound 2.53 µM) of 0.404, a relative viability (NCI-H2085; first compound 8 µM) of 0.399 and a relative viability (H3255; first compound 0.253 µM) of 0.577. For the same molecule, the relative viability (H3255; first compound 0.8 µM) was 0.562, the relative viability (H3255; first compound 2.53 µM) was 0.564 and the relative viability (H3255; first compound 8 µM) was 0.623. The relative viability (NCI-H1793; first compound 0.08 µM) was 0.478, the relative viability (NCI-H1793; first compound 0.253 µM) was 0.391 and the relative viability (NCI-H1793; first compound 0.8 µM) was 0.391. It also gave a relative viability (NCI-H1793; first compound 2.53 µM) of 0.44, a relative viability (NCI-H1793; first compound 8 µM) of 0.515 and a relative viability (LC-2-ad; first compound 0.08 µM) of 0.886. The relative viability (LC-2-ad; first compound 0.253 µM) was 0.819, the relative viability (LC-2-ad; first compound 0.8 µM) was 0.893 and the relative viability (LC-2-ad; first compound 2.53 µM) was 0.904. For the same molecule, the relative viability (LC-2-ad; first compound 8 µM) was 0.897, the relative viability (LK-2; first compound 0.08 µM) was 0.717 and the relative viability (LK-2; first compound 0.253 µM) was 0.826. The relative viability (LK-2; first compound 0.8 µM) was 0.749, the relative viability (LK-2; first compound 2.53 µM) was 0.492 and the relative viability (LK-2; first compound 8 µM) was 0.727. For the same molecule, the relative viability (CAL-12T; first compound 0.08 µM) was 0.326, the relative viability (CAL-12T; first compound 0.253 µM) was 0.291 and the relative viability (CAL-12T; first compound 0.8 µM) was 0.34. For the same molecule, the relative viability (CAL-12T; first compound 2.53 µM) was 0.272, the relative viability (CAL-12T; first compound 8 µM) was 0.251 and the relative viability (PC-3 [JPC-3]; first compound 0.253 µM) was 0.683. It also gave a relative viability (PC-3 [JPC-3]; first compound 0.8 µM) of 0.651, a relative viability (PC-3 [JPC-3]; first compound 2.53 µM) of 0.656 and a relative viability (PC-3 [JPC-3]; first compound 8 µM) of 0.607. The relative viability (NCI-H1944; first compound 0.08 µM) was 0.396, the relative viability (NCI-H1944; first compound 2.53 µM) was 0.346 and the relative viability (NCI-H1944; first compound 8 µM) was 0.409. It also gave a relative viability (NCI-H2087; first compound 0.08 µM) of 0.243, a relative viability (NCI-H2087; first compound 0.253 µM) of 0.24 and a relative viability (NCI-H2087; first compound 2.53 µM) of 0.179. For the same molecule, the relative viability (NCI-H2087; first compound 8 µM) was 0.205, the relative viability (EMC-BAC-2; first compound 0.08 µM) was 0.814 and the relative viability (EMC-BAC-2; first compound 0.253 µM) was 0.891. For the same molecule, the relative viability (EMC-BAC-2; first compound 0.8 µM) was 0.792, the relative viability (EMC-BAC-2; first compound 2.53 µM) was 0.815 and the relative viability (EMC-BAC-2; first compound 8 µM) was 0.802. It also gave a relative viability (NCI-H2228; first compound 0.08 µM) of 0.514, a relative viability (NCI-H2228; first compound 0.253 µM) of 0.475 and a relative viability (NCI-H2228; first compound 0.8 µM) of 0.522. The relative viability (NCI-H2228; first compound 2.53 µM) was 0.418, the relative viability (NCI-H2228; first compound 8 µM) was 0.167 and the relative viability (NCI-H1915; first compound 0.08 µM) was 0.293. The relative viability (NCI-H1915; first compound 0.253 µM) was 0.296, the relative viability (NCI-H1915; first compound 2.53 µM) was 0.296 and the relative viability (NCI-H1915; first compound 8 µM) was 0.287.
